Legend:
Nav 1.7 [1] = molecular target: T1, Nav 1.7 (Homo sapiens (Human), UniProt Q15858); assay: Nav 1.7 IWQ in vitro assay (IonWorks Quattro population patch-clamp); format: cell-based; conditions: 293 cells stably transfected with Nav 1.7; second part of table; read-out: Nav1.7 IWQ IC50 IP
Method in brief: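 HEK293 cells stably expressing Nav 1.7, recorded by automated population patch-clamp with a train of depolarizations producing increasing inactivation. Single compound concentration added during 3–8 min unclamped period, then same protocol repeated. Leak-corrected current at 26th pulse to −20 mV gave percent block (duplicate); IC50 fitted from concentration–block curves.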

Nav 1.7 [2] = molecular target: T1, Nav 1.7; assay: Nav 1.7 in vitro PX assay (PatchXpress whole cell voltage clamp); format: cell-based; conditions: 293 cells, human Nav1.7, partially inactivated state; read-out: Nav1.7 PX IC50 IP
Method in brief: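 HEK293 cells stably expressing human Nav1.7, whole-cell voltage clamp on PatchXpress, held at potential giving 20–50% inactivation; current elicited by 20 msec pulse to −10 mV.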

T1 sequence (Q15858 whole entry): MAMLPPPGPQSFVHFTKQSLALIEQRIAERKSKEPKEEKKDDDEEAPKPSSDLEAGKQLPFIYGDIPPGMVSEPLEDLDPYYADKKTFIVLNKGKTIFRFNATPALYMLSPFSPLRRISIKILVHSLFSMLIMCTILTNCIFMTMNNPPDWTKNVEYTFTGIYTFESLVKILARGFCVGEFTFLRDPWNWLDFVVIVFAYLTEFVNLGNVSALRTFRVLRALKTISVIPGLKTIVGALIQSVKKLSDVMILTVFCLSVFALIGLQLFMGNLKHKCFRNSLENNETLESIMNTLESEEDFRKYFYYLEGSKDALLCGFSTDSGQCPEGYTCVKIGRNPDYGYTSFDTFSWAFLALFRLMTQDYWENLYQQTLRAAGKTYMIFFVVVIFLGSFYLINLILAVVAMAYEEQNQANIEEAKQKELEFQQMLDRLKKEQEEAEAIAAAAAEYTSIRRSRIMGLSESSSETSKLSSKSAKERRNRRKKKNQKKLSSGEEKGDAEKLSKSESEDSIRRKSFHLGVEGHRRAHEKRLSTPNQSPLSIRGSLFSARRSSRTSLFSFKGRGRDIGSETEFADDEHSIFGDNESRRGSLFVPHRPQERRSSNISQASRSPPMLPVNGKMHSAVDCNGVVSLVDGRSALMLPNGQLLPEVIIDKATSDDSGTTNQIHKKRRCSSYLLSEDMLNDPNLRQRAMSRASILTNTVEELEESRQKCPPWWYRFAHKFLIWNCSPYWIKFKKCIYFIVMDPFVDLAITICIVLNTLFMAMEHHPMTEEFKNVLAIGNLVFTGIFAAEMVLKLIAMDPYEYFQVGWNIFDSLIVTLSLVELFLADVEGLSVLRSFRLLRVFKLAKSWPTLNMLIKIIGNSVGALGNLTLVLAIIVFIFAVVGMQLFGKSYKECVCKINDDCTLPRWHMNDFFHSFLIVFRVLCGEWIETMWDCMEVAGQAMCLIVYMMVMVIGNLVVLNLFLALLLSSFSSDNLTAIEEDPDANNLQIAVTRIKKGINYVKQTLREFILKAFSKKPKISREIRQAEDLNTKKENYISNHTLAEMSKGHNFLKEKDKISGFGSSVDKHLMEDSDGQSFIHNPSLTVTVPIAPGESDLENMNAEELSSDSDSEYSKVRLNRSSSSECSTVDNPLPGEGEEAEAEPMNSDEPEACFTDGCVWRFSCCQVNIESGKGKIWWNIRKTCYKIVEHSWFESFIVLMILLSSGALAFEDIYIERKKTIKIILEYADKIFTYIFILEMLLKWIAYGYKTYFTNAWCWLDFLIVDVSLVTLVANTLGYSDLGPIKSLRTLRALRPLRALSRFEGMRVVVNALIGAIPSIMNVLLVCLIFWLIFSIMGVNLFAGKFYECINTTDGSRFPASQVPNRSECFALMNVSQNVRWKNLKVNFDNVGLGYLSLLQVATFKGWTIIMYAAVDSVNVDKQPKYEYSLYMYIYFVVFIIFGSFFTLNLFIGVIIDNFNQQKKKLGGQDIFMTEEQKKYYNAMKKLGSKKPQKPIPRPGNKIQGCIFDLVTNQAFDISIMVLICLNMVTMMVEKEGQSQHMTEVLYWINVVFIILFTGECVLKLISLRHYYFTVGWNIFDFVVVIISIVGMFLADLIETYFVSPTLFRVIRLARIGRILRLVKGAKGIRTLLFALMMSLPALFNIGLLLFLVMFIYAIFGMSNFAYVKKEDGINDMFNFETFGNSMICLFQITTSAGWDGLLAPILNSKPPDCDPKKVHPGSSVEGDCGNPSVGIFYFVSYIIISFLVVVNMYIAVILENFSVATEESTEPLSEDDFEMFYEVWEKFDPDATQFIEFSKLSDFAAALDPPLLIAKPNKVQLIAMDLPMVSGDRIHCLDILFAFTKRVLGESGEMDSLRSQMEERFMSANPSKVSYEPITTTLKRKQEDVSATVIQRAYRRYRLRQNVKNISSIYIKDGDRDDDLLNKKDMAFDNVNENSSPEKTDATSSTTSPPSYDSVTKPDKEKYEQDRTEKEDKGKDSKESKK

SMILES | IC50 (Nav 1.7 [1]) | IC50 (Nav 1.7 [2])
N#Cc1cccc(COc2nccc3cc(S(=O)(=O)Nc4ccncn4)ccc23)c1 [Example 137, 1-((3-CYANOBENZYL)OXY)-N-(PYRIMIDIN-4-YL)ISOQUINOLINE-6-SULFONAMIDE] | 3.91 µM | > 30 µM
COc1cc(F)ccc1-c1ccnc2cc(S(=O)(=O)Nc3nccs3)ccc12 [Example 274, 4-(4-FLUORO-2-METHOXYPHENYL)-N-(THIAZOL-2-YL)QUINOLINE-7-SULFONAMIDE] | 0.03 µM | 0.49 µM
COc1cc(F)ccc1-c1nncc2cc(S(=O)(=O)Nc3nccs3)ccc12 [Example 250, 1-(4-FLUORO-2-METHOXYPHENYL)-N-(THIAZOL-2-YL)PHTHALAZINE-6-SULFONAMIDE] | 0.05 µM | 1.15 µM
COc1cc(F)c(C)cc1-c1nccc2cc(S(=O)(=O)Nc3ccncn3)ccc12 [Example 154] | 0.04 µM | 2.18 µM
O=S(=O)(Nc1nccs1)c1ccc2c(-c3ccc(F)cc3-c3ccncc3)nccc2c1 [Example 126, 1-(4-FLUORO-2-(PYRIDIN-4-YL)PHENYL)-N-(THIAZOL-2-YL)ISOQUINOLINE-6-SULFONAMIDE] | 0.13 µM | 2.66 µM
COc1cc(C(F)(F)F)ccc1-c1ncnc2cc(S(=O)(=O)Nc3ncc(F)s3)ccc12 [Example 263, N-(5-FLUOROTHIAZOL-2-YL)-4-(2-METHOXY-4-(TRIFLUOROMETHYL)PHENYL)QUINAZOLINE-7-SULFONAMIDE] | 0.01 µM | 0.28 µM
COc1cc(C(F)(F)F)ccc1-c1nncc2cc(S(=O)(=O)Nc3ccncn3)ccc12 [Example 254, 1-(2-METHOXY-4-(TRIFLUOROMETHYL)PHENYL)-N-(PYRIMIDIN-4-YL)PHTHALAZINE-6-SULFONAMIDE] | 0.26 µM | 5.26 µM
COc1cc(-c2ccccc2)ccc1-c1cccc2cc(S(=O)(=O)Nc3ccncn3)ccc12 [Example 115] | 0.18 µM | 0.692 µM
COc1cc(C(F)(F)F)ccc1-c1ncc(C#N)c2cc(S(=O)(=O)Nc3nccs3)ccc12 [Example 240, 4-CYANO-1-(2-METHOXY-4-(TRIFLUOROMETHYL)PHENYL)-N-(THIAZOL-2-YL)ISOQUINOLINE-6-SULFONAMIDE] | 0.19 µM | 0.39 µM
COc1cc(C#N)ccc1-c1nccc2cc(S(=O)(=O)Nc3nccs3)ccc12 [Example 205, 1-(4-CYANO-2-METHOXYPHENYL)-N-(THIAZOL-2-YL)ISOQUINOLINE-6-SULFONAMIDE] | 0.02 µM | 0.47 µM
COc1cc(F)ccc1-c1ncc(F)c2cc(S(=O)(=O)Nc3nccs3)ccc12 [Example 213, 4-FLUORO-1-(4-FLUORO-2-METHOXYPHENYL)-N-(THIAZOL-2-YL)ISOQUINOLINE-6-SULFONAMIDE] | 0.01 µM | 0.36 µM
CN1CCN(c2cc(C(F)(F)F)ccc2-c2cccc3cc(S(=O)(=O)Nc4nccs4)ccc23)CC1 [Example 84, 5-(2-(4-METHYLPIPERAZIN-1-YL)-4-(TRIFLUOROMETHYL)PHENYL)-N-(THIAZOL-2-YL)NAPHTHALENE-2-SULFONAMIDE 2,2,2-TRIFLUOROACETATE] | 0.11 µM | 0.588 µM
O=S(=O)(Nc1ccncn1)c1ccc2c(-c3ccccc3OCC(F)(F)F)nccc2c1 [Example 174, N-(PYRIMIDIN-4-YL)-1-(2-(2,2,2-TRIFLUOROETHOXY)PHENYL)ISOQUINOLINE-6-SULFONAMIDE] | 0.64 µM | 29.8 µM
COc1cc(Cl)ccc1-c1ccnc2cc(S(=O)(=O)Nc3nccs3)ccc12 [Example 275, 4-(4-CHLORO-2-METHOXYPHENYL)-N-(THIAZOL-2-YL)QUINOLINE-7-SULFONAMIDE] | 0.04 µM | 0.42 µM
COc1cc(C#N)ccc1-c1nncc2cc(S(=O)(=O)Nc3nccs3)ccc12 [Example 251, 1-(4-CYANO-2-METHOXYPHENYL)-N-(THIAZOL-2-YL)PHTHALAZINE-6-SULFONAMIDE] | 0.08 µM | 1.99 µM
N#CCn1c(-c2cccc3cc(S(=O)(=O)Nc4ccncn4)ccc23)cc2cc(F)ccc21 [Example 105] | 2.48 µM | 7.84 µM

From patent US9012443B2 (Amgen Inc., priority 2011, dated 2015)
